Legend:
[1] = tested on: Candida albicans C. a.^h (Table 4); assay: microbe, parasite or virus in culture; design: species or system yeast; tube dilution MIC in YEPD (± 1.2 M sorbitol), complete growth inhibition by turbidity; details: 48 h, YEPD + 1.2 M sorbitol
Experimental: Standard YEPD (Yeast Extract, Peptone, Dextrose) ([Sherman, 1990]), YEPD+S (YEPD with 1.2M sorbitol), YES (Yeast Extract, Dextrose and Supplements of Adenine, Histidine, Leucine, Uracil and Lysine) ([Alfa et al., 1993]) and YES+S (YES with 1.2 M sorbitol) ([Ribas et al., 1991]; [Ishiguro et al., 1997]), media were used for determination of MIC values of the tested compounds. A stock solution of 10 mg/ml of each tested compounds was prepared in DMSO and serial dilutions in DMSO were prepared. The final concentration of DMSO was 2% in the YEPD medium. […] The serial dilutions of compounds were dispensed into test tubes with 1 ml of YEPD or YEPD+S to make final concentrations of 200, 100, 50, 25, 12.5, 6.26, 3.125, 1.6, 0.8 and 0.4 μg/ml. The tested yeast strains were previously grown in YEPD, YEPD+S, YES or YES+S agar plates at 30°C for 48 h. For inoculation of YEPD or YEPD+S macro test tubes a suspension of tested fungus was produced with 10^5 cfu/ml (cfu - colony forming unit). 10 μl of suspension was used for inoculation of each tube. After 48 h incubation at 30°C the tubes were checked. The MIC value is the lowest concentration of the tested compound that could inhibit the fungal growth and the medium remained clear. From each tube 10 μl culture was plated on YEPD agar medium to check the contamination. The MIC tests were carried out in three parallels. Micro-culture assays of large numbers of samples were analyzed as described) ([Martins et al., 2011]). Essentially early log-phase cells were grown in YEPD, YEPD+S, YES or YES+S (1.2 M sorbitol) medium at 30°C, and diluted to cell density of 4 X 10^6 cells/ml in YEPD, YEPD+S, YES or YES+S medium and aliquots of 100 μl were dispensed into each small test tube (3 ml test tube size). Then, another 100 μl of YEPD, YEPD+S, YES or YES+S with the corresponding dilution of each compound at 2X concentration (4% DMSO) was added. The final volume was 200 μl, with the cells diluted to of 2 X 10^6 cells/ml and each compound diluted to 1X final concentration, containing increasing concentrations of antifungal (0, 1, 2, 5, 10, 20, 50, 100 and 200 μg/ml) or an equivalent volume of solvent (2% DMSO). The cells were grown at 30°C in an orbital roller and turbidity was analyzed after 24 and 48 h of incubation. The MIC was determined as the minimal concentration of tested compound that produced complete cell growth inhibition and kept the medium clear. The MIC values were calculated from at least three independent experiments.

[2] = tested on: C. albicans wild-type; assay: microbe, parasite or virus in culture; design: species or system whole yeast cells; macro tube broth dilution MIC in YEPD at 30 C, visual clearness of medium; details: Candida albicans, 48 h, YEPD medium

Row | SMILES | MIC [1] [µg/mL] | MIC ([2]; C. albicans strain f) [µg/mL] | MIC ([2]; C. albicans strain g) [µg/mL] | MIC ([2]; C. albicans strain h) [µg/mL]
1 | O=c1oc2ccc3ccccc3c2cc1-c1ccccc1CO [compound 12] | 100 | > 200 | > 200 | > 200
2 | O=c1oc2ccccc2cc1-c1ccccc1CO [compound 15] | > 200 | > 100 | > 100 | > 100

— article PMC6689975, “Novel Cell Wall Antifungals Reveal a Special Synergistic Activity in pbr1 Mutants Resistant to the Glucan Synthesis Antifungals Papulacandins and Echinocandins” (Frontiers in Microbiology, 2019)
